Values joined by “and” are separate entries in the source; they are usually repeats but may differ in a detail not shown here. Equal entries are not always repeated. One block for each compound: values may come before it.
System: 598228-144-R-J1-PDC complex spheroid viability
Experiment: Anticancer human tumor 598228-144-R-J1-PDC patient-derived serous endometrial adenocarcinoma cell line growth inhibition [GQUAD]
Conditions: for viability, T/C: stronger effect = lower value
Source text: DNA G-quadruplex Stabilizer Agents in Combinations in Complex Spheroids
A high-throughput screen of multi-cell type tumor spheroids was designed to identify active combinations of DNA G-quadruplex stabilizer agents and targeted small molecules. Complex spheroids include a stromal component modeled by human endothelial cells (HUVEC) and fibroblasts modeled by human mesenchymal stem cells (MSCs). The concentration ranges selected for each drug and investigational agent were based upon clinically achievable concentrations if the clinical Cmax of the agent was known.
Compounds. The drugs and investigational agents: pidnarulex (CX-5461; NSC782164), APTO-253 (NSC789042), BRACO-19 (NSC847499), peposertib (NSC802822), ceralasertib (NSC780249), elimusertib (NSC800525), camonsertib (NSC841442), AZD-1390 (NSC803789), olaparib (NSC753686), talazoparib (NSC767125), ART-558 (NSC835418), sotorasib (NSC818433), MRTX-1133 (NSC836407), SN-38 (NSC673596), topotecan (NSC609699), etoposide (NSC141540), doxorubicin (NSC123127), gemcitabine (NSC613327), 5-fluorouracil (NSC19893), paclitaxel (NSC125973), vemurafenib (NSC761431), panobinostat (NSC761190), R-306465 (JNJ-16241199; NSC773264), adavosertib (NSC754352), TP-3654 (NSC805149), carboplatin (NSC241240), KSQ-4279 (NSC840948), and staurosporine (NSC755774) were obtained from the National Cancer Institute (NCI) Developmental Therapeutics Program Chemical Repository (34). The FDA-approved anticancer drug set is available from the NCI Developmental Therapeutics Program. […] The stock solutions were prepared in dimethyl sulfoxide (DMSO, Sigma-Aldrich, St. Louis, MO, cat. D2650) at 800-fold the tested concentration and stored at -70 degrees C prior to their use. All drugs and investigational agents were tested over a range starting from a high concentration at or near the clinical Cmax and decreasing in half-log increments. If the clinical Cmax for an agent had not been determined, the highest concentration tested was 10 microM.
2.3 Cell Culture. All cells were maintained in an incubator at 37 degrees C and 5% CO2 with 95% humidity. The PDC lines were cultured according to standard operating procedures established by the NCI PDMR. All PDCs were thawed and cultured in Matrigel-coated flasks prepared with a working solution of 1X Ham's F-12 nutrient mix, without supplementation (Invitrogen, cat. 11765054), 100 U/mL penicillin-streptomycin (Invitrogen, cat. 15140122), and 2.5% Matrigel (Corning Inc., cat. 354248) for the first three passages. The 857933-349-R-J2-PDC line was cultured in 6C/Colon 1B media, which includes advanced DMEM/F-12 (Thermo Fisher Scientific, cat. 12634028), 10 mM HEPES (Thermo Fisher Scientific, cat. 15630080), 1X GlutaMAX supplement (Thermo Fisher Scientific, cat. 35050061), 0.1 mg/mL primocin (InvivoGen, cat. ant-pm-2), 10% defined fetal bovine serum, heat inactivated (HyClone Laboratories Inc., cat. SH30070.03HI), 50% L-WRN conditioned media (ATCC, cat. CRL-3276), 1.25 mM N-Acetyl-L-cysteine (Sigma-Aldrich, cat. A9165), 10 mM nicotinamide (Sigma-Aldrich, cat. N0636), 1X B-27 supplement (Thermo Fisher Scientific, cat. 17504044), 1X N-2 supplement (Thermo Fisher Scientific, cat. 17502048), 10 microM Y-27632 dihydrochloride (Tocris Bioscience, cat. 1254), and 50 ng/mL human EGF recombinant protein (Thermo Fisher Scientific, cat. PHG0311). The 485176-168-R4-J1-PDC line was cultured in Panc media, which includes all 6C/Colon 1B media components plus 100 ng/mL human FGF-10 (Thermo Fisher Scientific, cat. 100-26), 500 nM SB-431542 (Selleckchem, cat. S1067), and gastrin (Tocris, cat. 3006).
[…]
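Also: spheroids exposed to the agents for one week before reading.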
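For viability, T/C in this document: percent of vehicle DMSO control viability so 100% = untreated growth.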

IC50 (curve of compound): 8.88 µM and 6.56 µM and 7.61 µM
SMILES: CCCS(=O)(=O)Nc1ccc(F)c(C(=O)c2c[nH]c3ncc(-c4ccc(Cl)cc4)cc23)c1F
viability, T/C (compound 0.0316 µM): 122% and 103% and 107%
viability, T/C (compound 0.1 µM): 93.3% and 86.4% and 114%
viability, T/C (compound 0.316 µM): 104% and 110% and 102%
viability, T/C (compound 1 µM): 106% and 110% and 130%
viability, T/C (compound 3.16 µM): 100% and 90.5% and 112%
viability, T/C (compound 10 µM): 44.2% and 26.5% and 30.6%

IC50 (curve of compound): 5.53 µM and 5.37 µM and 9.39 µM
SMILES: CC1COCCN1c1cc(C2(S(C)(=N)=O)CC2)nc(-c2ccnc3[nH]ccc23)n1 (stereo not given)
viability, T/C (compound 0.0316 µM): 91.8% and 116% and 77.8%
viability, T/C (compound 0.1 µM): 83.7% and 108% and 99.1%
viability, T/C (compound 0.316 µM): 88.9% and 94.8% and 83.4%
viability, T/C (compound 1 µM): 77.9% and 77.5% and 88.2%
viability, T/C (compound 3.16 µM): 60.3% and 46.7% and 97.7%
viability, T/C (compound 10 µM): 39.3% and 49.6% and 47.7%

SMILES: CCCS(=O)(=O)Nc1ccc(F)c(C(=O)c2c[nH]c3ncc(-c4ccc(Cl)cc4)cc23)c1F + CN(C)c1ccc(Nc2c3ccc(NC(=O)CCN4CCCC4)cc3nc3cc(NC(=O)CCN4CCCC4)ccc23)cc1
IC50 (curve of first compound, second compound 0.0316 µM): 7.87 µM
IC50 (curve of first compound, second compound 0.1 µM): 7.44 µM
IC50 (curve of first compound, second compound 0.316 µM): 7.33 µM
IC50 (curve of first compound, second compound 1 µM): 7.65 µM
IC50 (curve of first compound, second compound 3.16 µM): 7.08 µM
IC50 (curve of first compound, second compound 10 µM): 5.21 µM
viability, T/C (second compound 0.0316 µM, first compound 0.0316 µM): 105%
viability, T/C (second compound 0.0316 µM, first compound 0.1 µM): 121%
viability, T/C (second compound 0.0316 µM, first compound 0.316 µM): 93.8%
viability, T/C (second compound 0.0316 µM, first compound 1 µM): 107%
viability, T/C (second compound 0.0316 µM, first compound 3.16 µM): 110%
viability, T/C (second compound 0.0316 µM, first compound 10 µM): 34.8%
viability, T/C (second compound 0.1 µM, first compound 0.0316 µM): 94.3%
viability, T/C (second compound 0.1 µM, first compound 0.1 µM): 104%
viability, T/C (second compound 0.1 µM, first compound 0.316 µM): 111%
viability, T/C (second compound 0.1 µM, first compound 1 µM): 109%
viability, T/C (second compound 0.1 µM, first compound 3.16 µM): 123%
viability, T/C (second compound 0.1 µM, first compound 10 µM): 29.8%
viability, T/C (second compound 0.316 µM, first compound 0.0316 µM): 122%
viability, T/C (second compound 0.316 µM, first compound 0.1 µM): 108%
viability, T/C (second compound 0.316 µM, first compound 0.316 µM): 97.1%
viability, T/C (second compound 0.316 µM, first compound 1 µM): 124%
viability, T/C (second compound 0.316 µM, first compound 3.16 µM): 93.2%
viability, T/C (second compound 0.316 µM, first compound 10 µM): 34.1%
viability, T/C (second compound 1 µM, first compound 0.0316 µM): 89.3%
viability, T/C (second compound 1 µM, first compound 0.1 µM): 99.2%
viability, T/C (second compound 1 µM, first compound 0.316 µM): 110%
viability, T/C (second compound 1 µM, first compound 1 µM): 133%
viability, T/C (second compound 1 µM, first compound 3.16 µM): 108%
viability, T/C (second compound 1 µM, first compound 10 µM): 32.6%
viability, T/C (second compound 3.16 µM, first compound 0.0316 µM): 94.1%
viability, T/C (second compound 3.16 µM, first compound 0.1 µM): 95.4%
viability, T/C (second compound 3.16 µM, first compound 0.316 µM): 80.8%
viability, T/C (second compound 3.16 µM, first compound 1 µM): 118%
viability, T/C (second compound 3.16 µM, first compound 3.16 µM): 100%
viability, T/C (second compound 3.16 µM, first compound 10 µM): 29.3%
viability, T/C (second compound 10 µM, first compound 0.0316 µM): 103%
viability, T/C (second compound 10 µM, first compound 0.1 µM): 75.3%
viability, T/C (second compound 10 µM, first compound 0.316 µM): 100%
viability, T/C (second compound 10 µM, first compound 1 µM): 86.8%
viability, T/C (second compound 10 µM, first compound 3.16 µM): 74%
viability, T/C (second compound 10 µM, first compound 10 µM): 19.2%

IC50 (curve of compound): 0.14 µM and 0.0916 µM and 0.079 µM
SMILES: CC1COCCN1c1cc(-c2ccnn2C)c2ccnc(-c3ccn[nH]3)c2n1 (stereo not given)
viability, T/C (compound 0.0316 µM): 76% and 72.5% and 81.6%
viability, T/C (compound 0.1 µM): 52.9% and 44.2% and 42.1%
viability, T/C (compound 0.316 µM): 37.5% and 47.8% and 36.9%
viability, T/C (compound 1 µM): 43.9% and 35.5% and 42.2%
viability, T/C (compound 3.16 µM): 50% and 39.5% and 40.7%
viability, T/C (compound 10 µM): 39.6% and 33.4% and 38.9%

IC50 (curve of compound): 9.17 µM and 7.57 µM and 6.25 µM
SMILES: COc1cc(C2c3cc4c(cc3C(OC3OC5COC(C)OC5C(O)C3O)C3COC(=O)C23)OCO4)cc(OC)c1O (stereo not given)
viability, T/C (compound 0.0316 µM): 89.4% and 97.4% and 93.6%
viability, T/C (compound 0.1 µM): 96.5% and 82.4% and 72.5%
viability, T/C (compound 0.316 µM): 74.2% and 76.2% and 74.6%
viability, T/C (compound 1 µM): 78.1% and 70.3% and 58.1%
viability, T/C (compound 3.16 µM): 64.4% and 59.9% and 78.7%
viability, T/C (compound 10 µM): 48% and 46% and 36%
